According to patent US12077503B2, “Substituted cyclic amides and their use as herbicides” (FMC CORPORATION, priority 2015, dated 2024):

Assays:
Assay type in all cases: in vivo
[1] = test system: ragweed (common ragweed, Ambrosia elatior); experiment: Test A preemergence; conditions: Ambrosia artemisiifolia, pre-emergence, 240 h, Preemergence
Outline: (§1)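 In a loam soil and sand blend, planted seeds got a preemergence directed soil spray, and young plants at the one- to two-leaf stage, 2–10 cm high, got a postemergence application; ~10 d greenhouse hold; injury rated visually, 0 = none, 100 = complete control.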

Kochia (Kochia scoparia) [2] = experiment: Test A preemergence; conditions: Bassia scoparia, pre-emergence, 240 h, Preemergence
Outline: as §1

[3] = test system: pigweed (Amaranthus retroflexus); experiment: Test A preemergence; conditions: Amaranthus retroflexus, pre-emergence, 240 h, Preemergence
[4] = test system: giant foxtail (Setaria faberii); experiment: Test A preemergence; conditions: Setaria faberi, pre-emergence, 240 h, Preemergence
Outline: as §1

[5] = test system: ryegrass, Italian (Italian ryegrass, Lolium multiflorum); experiment: Test A preemergence; conditions: Lolium multiflorum, pre-emergence, 240 h, Preemergence
Outline: as §1

[6] = test system: barnyardgrass (Echinochloa crus-galli); experiment: Test A preemergence; conditions: Echinochloa crus-galli, pre-emergence, 240 h, Preemergence
Outline: as §1

[7] = test system: blackgrass (Alopecurus myosuroides); experiment: Test A postemergence; conditions: Alopecurus myosuroides, post-emergence, 240 h, Postemergence
Outline: as §1

[8] = test system: wheat (Triticum aestivum); experiment: Test A postemergence; conditions: Triticum aestivum, post-emergence, 240 h, Postemergence
Outline: as §1

[9] = test system: ragweed (common ragweed, Ambrosia elatior); experiment: Test A postemergence; conditions: Ambrosia artemisiifolia, post-emergence, 240 h, Postemergence
Outline: as §1

Kochia (Kochia scoparia) [10] = experiment: Test A postemergence; conditions: Bassia scoparia, post-emergence, 240 h, Postemergence
Outline: as §1

[11] = test system: Galium (catchweed bedstraw, Galium aparine); experiment: Test A postemergence; conditions: Galium, post-emergence, 240 h, Postemergence
Outline: as §1

[12] = test system: pigweed (Amaranthus retroflexus); experiment: Test A postemergence; conditions: Amaranthus retroflexus, post-emergence, 240 h, Postemergence
Outline: as §1

[13] = test system: giant foxtail (Setaria faberii); experiment: Test A postemergence; conditions: Setaria faberi, post-emergence, 240 h, Postemergence
Outline: as §1

[14] = test system: ryegrass, Italian (Italian ryegrass, Lolium multiflorum); experiment: Test A postemergence; conditions: Lolium multiflorum, post-emergence, 240 h, Postemergence
Outline: as §1

[15] = test system: barnyardgrass (Echinochloa crus-galli); experiment: Test A postemergence; conditions: Echinochloa crus-galli, post-emergence, 240 h, Postemergence
Outline: as §1

corn (Zea mays) = experiment: Test A postemergence; conditions: Zea mays, post-emergence, 240 h, Postemergence
Outline: as §1

[16] = test system: ducksalad (Heteranthera limosa); experiment: Test B flooded paddy test; conditions: Heteranthera limosa, 360 h, Flood, 250 g ai/ha; visually evaluated after 13 to 15 d; read-out: Plant response rating, Ducksalad (0 to 100 scale where 0 is no effect and 100 is complete control)
Outline: (§2)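 2-leaf plants; pots flooded 3 cm over soil; cpd added to paddy water; depth held; greenhouse 13–15 d; visual rating vs controls, 0 = no effect, 100 = complete control.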

rice (Oryra sativa) = experiment: Test B flooded paddy test; conditions: Oryza sativa, 360 h, Flood, 250 g ai/ha; visually evaluated after 13 to 15 d; read-out: Plant response rating, Rice (0 to 100 scale where 0 is no effect and 100 is complete control)
Outline: as §2

[17] = test system: sedge, umbrella (small-flower umbrella sedge, Cyperus difformis); experiment: Test B flooded paddy test; conditions: Cyperus difformis, 360 h, Flood, 250 g ai/ha; visually evaluated after 13 to 15 d; read-out: Plant response rating, Sedge, Umbrella (0 to 100 scale where 0 is no effect and 100 is complete control)
Outline: as §2

[18] = test system: barnyardgrass (Echinochloa crus-galli); experiment: Test B flooded paddy test; conditions: Echinochloa crus-galli, 360 h, Flood, 250 g ai/ha; visually evaluated after 13 to 15 d; read-out: Plant response rating, Barnyardgrass (0 to 100 scale where 0 is no effect and 100 is complete control)
Outline: as §2

Compound `CN1C[C@H](c2ccc(C(F)(F)F)cc2)[C@@H](C(=O)Nc2cccc(F)n2)C1=O` [Compound 1400] has a pest or weed control at 31 g/ha ([1]; 31 g ai/ha, 0 to 100 scale where 0 is no effect and 100 is complete control, read-out: Ragweed plant response rating) of 0%, a pest or weed control at 125 g/ha ([1]; 125 g ai/ha, 0 to 100 scale (0 no effect, 100 complete control), read-out: Plant response rating, Ragweed) of 70% and a pest or weed control at 31 g/ha (Kochia (Kochia scoparia) [2]; 31 g ai/ha, 0 to 100 scale where 0 is no effect and 100 is complete control, read-out: Kochia plant response rating) of 60%. It also gave a pest or weed control at 125 g/ha (Kochia (Kochia scoparia) [2]; 125 g ai/ha, 0 to 100 scale (0 no effect, 100 complete control), read-out: Plant response rating, Kochia) of 70%, a pest or weed control at 31 g/ha ([3]; 31 g ai/ha, 0 to 100 scale where 0 is no effect and 100 is complete control, read-out: Pigweed plant response rating) of 80% and a pest or weed control at 125 g/ha ([3]; 125 g ai/ha, 0 to 100 scale (0 no effect, 100 complete control), read-out: Plant response rating, Pigweed) of 80%. For the same compound, the pest or weed control at 31 g/ha ([4]; 31 g ai/ha, 0 to 100 scale where 0 is no effect and 100 is complete control, read-out: Foxtail, Giant plant response rating) was 90%, the pest or weed control at 125 g/ha ([4]; 125 g ai/ha, 0 to 100 scale (0 no effect, 100 complete control), read-out: Plant response rating, Foxtail, Giant) was 90% and the pest or weed control at 31 g/ha ([5]; 31 g ai/ha, 0 to 100 scale where 0 is no effect and 100 is complete control, read-out: Ryegrass, Italian plant response rating) was 0%. For the same compound, the pest or weed control at 125 g/ha ([5]; 125 g ai/ha, 0 to 100 scale (0 no effect, 100 complete control), read-out: Plant response rating, Ryegrass, Italian) was 30%, the pest or weed control at 31 g/ha ([6]; 31 g ai/ha, 0 to 100 scale where 0 is no effect and 100 is complete control, read-out: Barnyardgrass plant response rating) was 90% and the pest or weed control at 125 g/ha ([6]; 125 g ai/ha, 0 to 100 scale (0 no effect, 100 complete control), read-out: Plant response rating, Barnyardgrass) was 90%. It also gave a pest or weed control at 31 g/ha ([7]; 31 g ai/ha, 0 is no effect, 100 is complete control, read-out: Blackgrass plant response rating (0 to 100 scale)) of 30%, a pest or weed control at 125 g/ha ([7]; 125 g ai/ha, visual injury after approx. 10 d, 0 to 100 scale, 0 no effect, 100 complete control, read-out: Plant response rating, Blackgrass) of 70% and a plant injury at 31 g/ha ([8]; 31 g ai/ha, 0 is no effect, 100 is complete control, read-out: Wheat plant response rating (0 to 100 scale)) of 0%. The plant injury at 125 g/ha ([8]; 125 g ai/ha, visual injury after approx. 10 d, 0 to 100 scale, 0 no effect, 100 complete control, read-out: Plant response rating, Wheat) was 60%, the pest or weed control at 31 g/ha ([9]; 31 g ai/ha, 0 is no effect, 100 is complete control, read-out: Ragweed plant response rating (0 to 100 scale)) was 0% and the pest or weed control at 125 g/ha ([9]; 125 g ai/ha, visual injury after approx. 10 d, 0 to 100 scale, 0 no effect, 100 complete control, read-out: Plant response rating, Ragweed) was 50%. For the same compound, the pest or weed control at 31 g/ha (Kochia (Kochia scoparia) [10]; 31 g ai/ha, 0 is no effect, 100 is complete control, read-out: Kochia plant response rating (0 to 100 scale)) was 30%, the pest or weed control at 125 g/ha (Kochia (Kochia scoparia) [10]; 125 g ai/ha, visual injury after approx. 10 d, 0 to 100 scale, 0 no effect, 100 complete control, read-out: Plant response rating, Kochia) was 70% and the pest or weed control at 31 g/ha ([11]; 31 g ai/ha, 0 is no effect, 100 is complete control, read-out: Galium plant response rating (0 to 100 scale)) was 20%. The pest or weed control at 125 g/ha ([11]; 125 g ai/ha, visual injury after approx. 10 d, 0 to 100 scale, 0 no effect, 100 complete control, read-out: Plant response rating, Galium) was 70%, the pest or weed control at 31 g/ha ([12]; 31 g ai/ha, 0 is no effect, 100 is complete control, read-out: Pigweed plant response rating (0 to 100 scale)) was 50% and the pest or weed control at 125 g/ha ([12]; 125 g ai/ha, visual injury after approx. 10 d, 0 to 100 scale, 0 no effect, 100 complete control, read-out: Plant response rating, Pigweed) was 60%. The pest or weed control at 31 g/ha ([13]; 31 g ai/ha, 0 is no effect, 100 is complete control, read-out: Foxtail, Giant plant response rating (0 to 100 scale)) was 70%, the pest or weed control at 125 g/ha ([13]; 125 g ai/ha, visual injury after approx. 10 d, 0 to 100 scale, 0 no effect, 100 complete control, read-out: Plant response rating, Foxtail, Giant) was 90% and the pest or weed control at 31 g/ha ([14]; 31 g ai/ha, 0 is no effect, 100 is complete control, read-out: Ryegrass, Italian plant response rating (0 to 100 scale)) was 30%. The pest or weed control at 125 g/ha ([14]; 125 g ai/ha, visual injury after approx. 10 d, 0 to 100 scale, 0 no effect, 100 complete control, read-out: Plant response rating, Ryegrass, Italian) was 50%, the pest or weed control at 31 g/ha ([15]; 31 g ai/ha, 0 is no effect, 100 is complete control, read-out: Barnyardgrass plant response rating (0 to 100 scale)) was 70% and the pest or weed control at 125 g/ha ([15]; 125 g ai/ha, visual injury after approx. 10 d, 0 to 100 scale, 0 no effect, 100 complete control, read-out: Plant response rating, Barnyardgrass) was 90%. For the same compound, the plant injury at 31 g/ha (corn (Zea mays); 31 g ai/ha, 0 is no effect, 100 is complete control, read-out: Corn plant response rating (0 to 100 scale)) was 20%, the Corn plant response rating (crop injury, 0 = no effect, 100 = complete kill) at 125 g/ha (corn (Zea mays); 125 g ai/ha, visual injury after approx. 10 d, 0 to 100 scale, 0 no effect, 100 complete control) was 40% and the pest or weed control at 250 g/ha [16] was 100%. For the same compound, the pest or weed control at 250 g/ha (rice (Oryra sativa)) was 0%, the pest or weed control at 250 g/ha [17] was 0% and the pest or weed control at 250 g/ha [18] was 80%.
